Results reported in patent publication US9387209B2, “Histone deacetylases (HDACs) inhibitors” (ANNJI PHARMACEUTICAL CO., LTD., priority 2012, dated 2016).
Where two headings read alike, the source gives them in different places.

How the values were obtained:
[1] = target: T1, human histone deacetylases (HDAC) 6 (Homo sapiens, UniProt Q9UBN7); experiment: HDAC enzymatic assay, HDAC6; format: biochemical; conditions: for selective inhibitions on HDAC6: HDAC6 versus other HDACs
T1 sequence (Q9UBN7 1-1215): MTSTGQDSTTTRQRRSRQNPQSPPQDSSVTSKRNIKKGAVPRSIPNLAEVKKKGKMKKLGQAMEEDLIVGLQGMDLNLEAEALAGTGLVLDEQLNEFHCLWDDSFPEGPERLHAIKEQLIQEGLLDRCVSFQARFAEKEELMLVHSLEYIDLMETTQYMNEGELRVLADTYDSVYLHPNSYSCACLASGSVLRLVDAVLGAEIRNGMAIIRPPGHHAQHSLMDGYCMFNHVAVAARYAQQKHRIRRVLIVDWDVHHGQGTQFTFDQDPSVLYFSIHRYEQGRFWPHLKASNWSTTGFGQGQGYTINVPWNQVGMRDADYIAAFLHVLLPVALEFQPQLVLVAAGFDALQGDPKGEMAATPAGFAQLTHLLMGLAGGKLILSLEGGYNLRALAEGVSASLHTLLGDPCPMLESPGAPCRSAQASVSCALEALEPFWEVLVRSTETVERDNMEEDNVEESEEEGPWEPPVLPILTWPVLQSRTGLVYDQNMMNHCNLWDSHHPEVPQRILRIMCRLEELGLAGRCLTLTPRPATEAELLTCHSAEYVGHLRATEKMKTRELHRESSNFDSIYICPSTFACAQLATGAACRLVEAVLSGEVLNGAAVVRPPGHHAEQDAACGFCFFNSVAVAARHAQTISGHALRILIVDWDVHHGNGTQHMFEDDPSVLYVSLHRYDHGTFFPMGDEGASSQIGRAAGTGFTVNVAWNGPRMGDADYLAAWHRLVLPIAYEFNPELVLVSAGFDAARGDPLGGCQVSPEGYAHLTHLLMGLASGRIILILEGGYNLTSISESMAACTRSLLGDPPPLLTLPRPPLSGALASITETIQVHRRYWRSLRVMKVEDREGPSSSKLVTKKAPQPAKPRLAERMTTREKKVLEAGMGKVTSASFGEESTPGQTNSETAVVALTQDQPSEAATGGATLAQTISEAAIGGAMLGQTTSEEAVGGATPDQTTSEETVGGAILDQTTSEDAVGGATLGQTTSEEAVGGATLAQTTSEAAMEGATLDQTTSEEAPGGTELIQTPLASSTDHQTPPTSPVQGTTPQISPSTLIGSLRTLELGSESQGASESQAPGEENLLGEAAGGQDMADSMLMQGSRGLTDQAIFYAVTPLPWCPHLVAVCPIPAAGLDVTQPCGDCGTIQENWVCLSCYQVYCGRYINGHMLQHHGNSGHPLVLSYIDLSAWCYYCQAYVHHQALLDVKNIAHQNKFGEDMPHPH

[2] = target: T2, human histone deacetylases (HDAC) 8 (Homo sapiens, UniProt Q9BY41); experiment: HDAC enzymatic assay, HDAC8; format: biochemical
T2 sequence (Q9BY41 1-377): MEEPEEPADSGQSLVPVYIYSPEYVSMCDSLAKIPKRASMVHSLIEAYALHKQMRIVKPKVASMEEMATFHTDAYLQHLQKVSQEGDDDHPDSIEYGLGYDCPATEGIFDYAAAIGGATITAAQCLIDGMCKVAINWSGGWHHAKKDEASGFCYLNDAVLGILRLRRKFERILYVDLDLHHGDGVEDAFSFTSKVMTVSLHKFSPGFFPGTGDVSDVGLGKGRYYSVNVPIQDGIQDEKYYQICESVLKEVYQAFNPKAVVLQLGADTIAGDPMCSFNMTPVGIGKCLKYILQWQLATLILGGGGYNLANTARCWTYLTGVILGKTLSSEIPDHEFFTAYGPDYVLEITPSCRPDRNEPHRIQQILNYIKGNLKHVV

[3] = target: human histone deacetylases (HDAC) 1 (Homo sapiens, UniProt Q13547); experiment: HDAC enzymatic assay, HDAC1; format: biochemical; conditions: read-out: IC50 HDAC1 (grading)
Chain of human histone deacetylases (HDAC) 1 (Q13547 whole entry): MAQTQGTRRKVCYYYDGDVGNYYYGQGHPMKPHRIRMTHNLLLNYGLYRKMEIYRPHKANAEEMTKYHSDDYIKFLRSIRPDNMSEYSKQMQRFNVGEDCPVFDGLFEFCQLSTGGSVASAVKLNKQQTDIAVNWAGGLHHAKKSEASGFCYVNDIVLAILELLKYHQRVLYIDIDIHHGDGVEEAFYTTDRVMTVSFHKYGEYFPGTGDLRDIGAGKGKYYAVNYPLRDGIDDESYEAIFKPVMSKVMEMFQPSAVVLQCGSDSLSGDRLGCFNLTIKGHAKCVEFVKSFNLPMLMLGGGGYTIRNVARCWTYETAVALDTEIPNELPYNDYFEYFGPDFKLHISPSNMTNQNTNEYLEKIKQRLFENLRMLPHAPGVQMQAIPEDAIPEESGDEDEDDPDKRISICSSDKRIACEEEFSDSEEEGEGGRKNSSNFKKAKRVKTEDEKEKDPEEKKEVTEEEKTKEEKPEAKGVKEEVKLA

PC 12 cells [4] = experiment: Neurite outgrowth assay, PC 12; format: cell-based; conditions: Rattus norvegicus
SH-SY5Y cells [5] = experiment: Neurite outgrowth assay, SH-SY5Y; format: cell-based; conditions: Homo sapiens
PC 12 cells [6] = experiment: Neurite synaptic uptake activity (FM1-43), PC 12; format: cell-based; conditions: Rattus norvegicus, NGF positive control taken as 100%, read-out: uptake of dye FM1-43 EC50
Procedure: (§1) Neurite Synaptic Uptake Activity Analysis.
(§2) The effects of compounds on the neuronal synapse uptake of fluorescent indicator FM1-43 were assayed. The uptake of the dye indicated the synaptic function of the neurites. PC 12 and SH-SY5Y cells were used. Cells in experimental groups were treated with a test compound and FM1-43; Cells in positive control were treated with NGF and FM1-43; Cells in negative control were treated with a vehicle and FM1-43. The fluorescence in the positive control were taken as 100%.

SH-SY5Y cells [7] = experiment: Neurite synaptic uptake activity (FM1-43), SH-SY5Y; format: cell-based; conditions: Homo sapiens, NGF positive control taken as 100%, read-out: uptake of dye FM1-43 EC50
Procedure: as §1, §2

[8] = MTT or SRB assay for cytotoxicity, A549; format: cell-based; conditions: human, A549 cells, read-out: cytotoxicity IC50 (grading) A549
Procedure: (§3) MTT or SRB Assays for Cytotoxicities of HDAC Inhibitors.
(§4) These compounds were assayed for cytotoxicities to the following cells: A549 cells (adenocarcinomic human alveolar basal epithelial cells), HCT-116 cells (human colon carcinoma cells). PANC-1 cells (human pancreatic carcinoma, epithelial-like cell line) and HepG2 cells (human liver hepatocellular carcinoma cell line), neuronal cells PC12 (rat pheochromocytoma cell line) and SH-SY5Y (human neuroblastoma cell line). MTT (3-[4,5-dimethylthiazol-2-yl]2,5-diphenyl-tetrazolium bromide) reduction was collaborated by using trypan blue exclusion assay.

[9] = MTT or SRB assay for cytotoxicity, HCT116; format: cell-based; conditions: human, HCT-116 cells, read-out: cytotoxicity IC50 (grading) HCT116
Procedure: as §3, §4

[10] = MTT or SRB assay for cytotoxicity, PANC1; format: cell-based; conditions: human, PANC-1 cells, read-out: cytotoxicity IC50 (grading) PANC1
Procedure: as §3, §4

[11] = MTT or SRB assay for cytotoxicity, HepG2; format: cell-based; conditions: human, HepG2 cells, read-out: cytotoxicity IC50 (grading) HepG2
Procedure: as §3, §4

[12] = HDAC6, read-out: IC50 HDAC6 (grading)
[13] = HDAC8, read-out: IC50 HDAC8 (grading)

| IC50 [3] | IC50 [1, 12] | selective inhibitions on HDAC6 [1] | IC50 [2, 13] | EC50 (SH-SY5Y cells [5]) | EC50 (PC 12 cells [6]) | EC50 (SH-SY5Y cells [7]) | melting point | Structure (SMILES) | IC50 [1] | IC50 [2] | EC50 (PC 12 cells [4]) | IC50 [8] | IC50 [9] | IC50 [10] | IC50 [11] |
| --- | --- | --- | --- | --- | --- | --- | --- | --- | --- | --- | --- | --- | --- | --- | --- |
| 1000 to 10000 nM | < 100 nM | selective inhibitions on HDAC6 | 1000 to 10000 nM | 9.97 ± 1.17 µM | 6.95 ± 0.82 µM | 9.97 ± 1.17 µM | 189 to 191 °C | CCc1nc2cc(/C=C/C(=O)NO)ccc2c(=O)n1CCCc1ccccc1 [Compound 1j, (2E)-3-(2-ethyl-3,4-dihydro-4-oxo-3-(3-phenylpropyl)quinazolin-7-yl)-N-hydroxyacrylamide] |  |  | 6.95 ± 0.82 µM |  |  |  |  |
| 100 to 1000 nM | < 100 nM |  |  | > 30 µM | 0.76 ± 0.69 µM | > 30 µM | 204 to 206 °C (dec.) | O=C(/C=C/c1ccc2c(=O)n(CCc3ccccc3)c(C3CC3)nc2c1)NO [Compound 1k, (2E)-3-(2-cyclopropyl-3,4-dihydro-4-oxo-3-phenethylquinazolin-7-yl)-N-hydroxyacrylamide] |  |  | 0.76 ± 0.69 µM |  |  |  |  |
| 100 to 1000 nM | < 100 nM |  |  | 6.74 ± 0.78 µM | 5.28 ± 0.51 µM | 6.74 ± 0.78 µM | 173 to 174 °C (dec.) | CC(C)c1nc2cc(/C=C/C(=O)NO)ccc2c(=O)n1CCc1ccccc1 [Compound 1l, (2E)-3-(3,4-dihydro-2-isopropyl-4-oxo-3-phenethylquinazolin-7-yl)-N-hydroxyacrylamide] |  |  | 5.28 ± 0.51 µM |  |  |  |  |

Continued, compound first:

| Structure (SMILES) | IC50 [3] | IC50 [1, 12] | selective inhibitions on HDAC6 [1] | IC50 [2, 13] | EC50 (SH-SY5Y cells [5]) | EC50 (PC 12 cells [6]) | EC50 (SH-SY5Y cells [7]) | melting point | IC50 [1] | IC50 [2] | EC50 (PC 12 cells [4]) | IC50 [8] | IC50 [9] | IC50 [10] | IC50 [11] |
| --- | --- | --- | --- | --- | --- | --- | --- | --- | --- | --- | --- | --- | --- | --- | --- |
| Cc1nc2cc(/C=C/C(=O)NO)ccc2c(=O)n1-c1ccccc1 [Compound 1c, (2E)-3-(3,4-dihydro-2-methyl-4-oxo-3-phenylquinazolin-7-yl)-N-hydroxyacrylamide] |  |  |  |  |  |  |  |  | < 100 nM | 1000 to 10000 nM |  |  |  |  |  |
| CCc1nc2cc(/C=C/C(=O)NO)c(F)cc2c(=O)n1CCc1ccccc1 [Compound 2a, (2E)-3-(2-ethyl-6-fluoro-3,4-dihydro-4-oxo-3-phenethylquinazolin-7-yl)-N-hydroxyacrylamide] | 1000 to 10000 nM | < 100 nM | selective inhibitions on HDAC6 | 1000 to 10000 nM |  | 1.66 ± 0.76 µM |  |  |  |  |  | 1 to 10 µM | 1 to 10 µM | 1000 to 10000 nM | 1 to 10 µM |
| CCc1nc2cc(Cl)c(/C=C/C(=O)NO)cc2c(=O)n1CCc1ccccc1 [Compound 3b, (2E)-3-(7-chloro-2-ethyl-3,4-dihydro-4-oxo-3-phenethylquinazolin-6-yl)-N-hydroxyacrylamide] | > 10000 nM | 100 to 1000 nM |  | 1000 to 10000 nM | 7.63 ± 0.74 µM | 10.7 ± 1.26 µM | 7.63 ± 0.74 µM |  |  |  | 10.7 ± 1.26 µM | 1 to 10 µM | ≥ 10 µM | 100 to 1000 nM | ≥ 10 µM |
| CCc1nc2ccc(Cc3ccc(C(=O)NO)cc3)cc2c(=O)n1CCc1ccccc1 [Compound 4a, 4-((2-ethyl-3,4-dihydro-4-oxo-3-phenethylquinazolin-6-yl)methyl)-N-hydroxybenzamide] | 1000 to 10000 nM | < 100 nM | selective inhibitions on HDAC6 | < 100 nM | 4.06 ± 0.58 µM | 2.89 ± 0.45 µM | 4.06 ± 0.58 µM |  |  |  | 2.89 ± 0.45 µM |  |  |  |  |
| CCc1nc2c(Cc3ccc(C(=O)NO)cc3)cccc2c(=O)n1CCc1ccccc1 [Compound 4c, 4-((2-ethyl-3,4-dihydro-4-oxo-3-phenethylquinazolin-8-yl)methyl)-N-hydroxybenzamide] |  |  |  |  |  | 5.34 ± 0.85 µM |  |  | 100 to 1000 nM | 100 to 1000 nM |  | ≥ 10 µM | ≥ 10 µM | ≥ 10000 nM | 1 to 10 µM |
| CCc1nc2c(-c3ccc(C(=O)NO)cc3)cccc2c(=O)n1CCc1ccccc1 [Compound 5a, 4-(2-ethyl-3,4-dihydro-4-oxo-3-phenethylquinazolin-8-yl)-N-hydroxybenzamide] |  |  |  |  |  |  |  | 202 to 204 °C (dec.) |  |  |  | ≥ 10 µM | ≥ 10 µM | 1000 to 10000 nM | ≥ 10 µM |
